Like-named read-outs stand apart in the source and are kept apart here.

A short description of data set [1]: Cytotoxicity on Vero cells by neutral red dye-uptake assay. Particulars: African green monkey, Vero cell monolayers, neutral red dye uptake (Table 1). The format is cell-based. The protocol:
The cytotoxic effect of standard PA (purity >98%; kindly obtained from University of Chemistry and Technology Prague, Prague, Czech Republic), PA in combination with ACV (Sigma-Aldrich, Berlin, Germany) as well as standard ACV on Vero cells was assessed using the neutral red dye-uptake assay as previously described with slight modification. Briefly, the test compounds were dissolved in 0.2% dimethyl sulfoxide (DMSO). Further, stock solutions were prepared in deionized water and sterilized at a concentration of 620 μM. Vero cell monolayers cultivated in 96-well microtiter plates with two-fold serial dilutions of the test compounds were incubated for 48 h at 37°C in 5% CO2. After incubation, the morphological alterations of the treated cells were assessed using an inverted optical microscope (Leitz, Wetzlar, Germany) and the maximum non-toxic concentrations (MNTC) were determined. The concentrations of test substances that are necessary to decrease the cell viability by 50% (CC50) were assessed as compared with the untreated control cells. In order to acquire statistically relevant data for final evaluation, the cytotoxicity of test compounds was measured in at least three independent experiments conducted in duplicate.

Another data set deals with HSV-1 strain KOS. As to the kind of experiment: Anti-HSV-1 plaque reduction assay in infected Vero cells. In kind it is cell-based, herpes simplex virus type 1 (HSV-1). Particulars: for IC50: 72 h; for SI (CC50/IC50): selectivity index, Vero CC50 / HSV-1 IC50. The procedure:
Vero cells were infected with HSV-1 strain KOS (an ACV-sensitive strain) obtained from MUH, Prague, Czech Republic and propagated in Vero cells. Viral stocks were then titrated based on plaque forming unit (PFU) count by plaque assay as previously described. Viral stocks were stored at −80^◦C for further use.
The inhibitory activity against the replication of HSV-1 was evaluated using a plaque reduction assay as previously described. ACV was used as a reference drug. Briefly, cell monolayers were infected with 100 PFU of HSV-1 in MEM containing 1.5% carboxymethyl cellulose (CMC, Sigma-Aldrich, Berlin, Germany) in the presence or absence of test compounds at different concentrations. Afterward, the cells were subjected to incubation for 72 h at 37 °C, then fixed and stained using naphthol blue-black (Sigma-Aldrich, Berlin, Germany). Subsequently, the plaques were counted. IC50 values (concentrations of test compounds required to decrease the number of plaques by 50%) were determined as compared with untreated control cells. A selectivity index (SI) value was calculated as the ratio CC50/IC50.
(Plaques are areas of infected cells; plaque reduction assays count them against a control.)

In the next data set the target is T1, HSV-1 DNA polymerase (Human herpesvirus 1, UniProt P04292).
T1 construct: HSV-1 DNA polymerase was extracted from HSV-1-infected Vero cells; made in house; host or cells: Vero cells infected with HSV-1 (KOS strain); virus-encoded native enzyme, purified on DEAE-cellulose and phosphate cellulose columns
As to the kind of experiment: Radiolabeled nucleotide-based HSV-1 DNA polymerase inhibition assay. In kind it is biochemical. The conditions noted are these: for type of inhibition: ascertained with Cheng–Prusoff equation; for IC50: 37 °C, 30 min; for Ki: calculated by Cheng–Prusoff equation. The procedure: HSV-1 DNA polymerase was extracted from HSV-1-infected Vero cells following the procedure as previously designated. Briefly, Vero cells were infected with HSV-1 (KOS strain) at a multiplicity of infection (MOI) equal to 5.0 for 12 h. Afterward, the infected cells were lysed with a buffer containing 0.25 M potassium phosphate (pH = 7.5), 10 mM 2-mercaptoethanol (2-ME), 1mM EDTA, 0.5% Triton X-100, 0.5 mM phenylmethane sulfonylfluoride (PMSF), and 20% glycerol, and subsequently sonicated and centrifuged at 10,000× g for 10 min at 4 °C. The resulting supernatant was additionally centrifuged at 100,000× g for 90 min at 4 °C and the supernatant was dialyzed against 10 mM potassium phosphate (pH = 7.5) with 10 mM 2-ME, 1mM EDTA, and 20% glycerol. Then, the obtained material was eluted in two ion-exchange chromatography columns (DEAE-cellulose and phosphate cellulose) (Sigma-Aldrich, Prague, Czech Republic) supplemented with potassium phosphate ([…]) as previously described.
Extracted HSV-1 DNA polymerase was evaluated for its purity and possible contamination with cellular enzymes such as type B DNA polymerase (α and δ polymerases) using polyclonal antibodies raised against these cellular enzymes following the procedure as previously described. The confirmation of the purity of HSV-1 DNA polymerase was achieved by using a kinetic assay in the presence or absence of ammonium sulfate (100 mM; an inhibitor of possible contaminant cellular polymerases) following the previously reported protocol.
A radiolabeled nucleotide-based assay was used to evaluate the inhibitory properties of PA along with the standard drugs aphidicolin (a known competitive inhibitor of HSV-1 DNA polymerase with respect to dTTP incorporation; purchased from Sigma-Aldrich, Prague, Czech Republic with purity ≥98%) and ACV triphosphate (ACV-TP) (a known competitive inhibitor of HSV-1 DNA polymerase with respect to dGTP incorporation; obtained from Sierra Bioresearch (Tucson, AZ, USA) with purity >98%) against HSV-1 DNA polymerase based on the incorporation of dTTP as a substrate with some modifications. Briefly, the enzyme assay was performed following the first-order kinetics conditions, where the enzymatic reaction initiated by pre-incubating 3 U/mL of HSV-1 DNA polymerase with a mixture containing 50 mM Tris-HCl (pH = 8), MgCl2 (8 mM), DTT (0.5 mM), bovine serum albumin (0.5 µg/mL), ammonium sulfate (100 mM; an inhibitor of possible contaminant cellular polymerases), 100 µM of each nucleotide (dATP, dGTP, dCTP, and [^3H]-dTTP—0.5 µCi/nmol) (obtained from MUH, Prague, Czech Republic) and activated salmon-sperm DNA (12 µg/mL). […] [^3H]-dGTP—0.5 µCi/nmol (obtained from MUH, Prague, Czech Republic) was used when the enzymatic assay was performed with ACV-TP.
The obtained mixture was further incubated with the test compounds (at concentrations ranging from 0.1 to 3 µM) at 37 °C for 30 min and afterward, the reaction was stopped by adding trichloroacetic acid (TCA; 10%). The resulting radioactivity was adsorbed over GF/C fiberglass membranes (Whatman; Sigma-Aldrich, Berlin, Germany) and counted by liquid scintillation (Tri-Carb 2600, Packard Inc., Downers Grove, IL, USA). All measurements were conducted in triplicate and IC50 values were calculated by nonlinear regression. Ki values (inhibition constant; concentration required to produce half maximum inhibition) were calculated using the Cheng–Prusoff equation as previously described.

T1 sequence (P04292 whole entry): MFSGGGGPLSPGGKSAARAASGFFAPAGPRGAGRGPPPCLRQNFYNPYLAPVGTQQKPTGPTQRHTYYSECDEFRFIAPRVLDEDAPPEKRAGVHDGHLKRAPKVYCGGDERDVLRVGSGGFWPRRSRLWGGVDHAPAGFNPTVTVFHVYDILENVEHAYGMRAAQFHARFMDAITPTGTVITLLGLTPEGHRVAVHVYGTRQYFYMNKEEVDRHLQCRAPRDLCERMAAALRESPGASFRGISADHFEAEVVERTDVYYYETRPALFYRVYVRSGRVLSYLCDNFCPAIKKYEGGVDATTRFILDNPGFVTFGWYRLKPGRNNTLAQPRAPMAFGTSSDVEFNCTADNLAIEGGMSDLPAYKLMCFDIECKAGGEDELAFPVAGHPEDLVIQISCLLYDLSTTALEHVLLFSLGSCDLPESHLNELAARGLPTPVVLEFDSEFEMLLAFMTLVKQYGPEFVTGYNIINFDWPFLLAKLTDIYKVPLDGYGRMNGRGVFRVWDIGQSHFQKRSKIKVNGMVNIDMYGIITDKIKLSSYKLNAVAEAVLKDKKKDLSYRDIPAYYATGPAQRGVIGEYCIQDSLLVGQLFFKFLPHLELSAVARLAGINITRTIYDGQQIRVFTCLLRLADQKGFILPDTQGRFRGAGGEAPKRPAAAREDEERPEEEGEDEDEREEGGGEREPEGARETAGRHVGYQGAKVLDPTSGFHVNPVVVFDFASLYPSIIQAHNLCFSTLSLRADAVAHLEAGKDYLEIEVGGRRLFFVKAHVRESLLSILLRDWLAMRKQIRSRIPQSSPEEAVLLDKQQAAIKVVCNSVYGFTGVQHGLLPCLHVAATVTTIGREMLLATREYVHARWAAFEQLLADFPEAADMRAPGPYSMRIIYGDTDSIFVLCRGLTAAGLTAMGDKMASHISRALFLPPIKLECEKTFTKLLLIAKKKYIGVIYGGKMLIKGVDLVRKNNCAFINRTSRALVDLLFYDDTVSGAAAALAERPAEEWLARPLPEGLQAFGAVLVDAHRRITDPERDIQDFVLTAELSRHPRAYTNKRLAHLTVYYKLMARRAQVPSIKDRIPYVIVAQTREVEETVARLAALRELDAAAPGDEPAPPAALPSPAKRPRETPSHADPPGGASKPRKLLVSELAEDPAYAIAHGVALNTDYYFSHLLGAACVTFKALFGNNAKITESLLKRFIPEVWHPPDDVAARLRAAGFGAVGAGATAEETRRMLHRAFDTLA

For the compound `Nc1nc2c(ncn2COCCO)c(=O)[nH]1` [ACV, acyclovir], in data set [1], the cytotoxic concentration (CC50) (commonly the concentration that lowers cell viability or growth by half) at 48 h is > 310 µM. Further, in the data set with HSV-1 strain KOS (Human alphaherpesvirus 1, HSV-1 replication, plaque reduction, Vero cells, read-out: IC50), the IC50 – broadly, the concentration at which inhibition is half-maximal – is 2.6 ± 0.38 µM. Also, the “SI (CC50/IC50)” value with HSV-1 strain KOS is on record as >119.2.
As to `Nc1nc2c(ncn2COCCOP(=O)(O)OP(=O)(O)OP(=O)(O)O)c(=O)[nH]1` [ACV-TP, acyclovir triphosphate], at HSV-1 DNA polymerase, the type of inhibition entry is on record as “competitive inhibitors”. This compound displayed an IC50 against HSV-1 DNA polymerase (with respect to dGTP incorporation ([3H]-dGTP)) of 0.9 ± 0.63 µM. Besides, the inhibitory constant (Ki) (as a rule, a measure of affinity in units of concentration, obtained from inhibition or displacement) at HSV-1 DNA polymerase (with respect to dGTP incorporation) is 0.5 ± 0.34 µM.
In the case of `COc1cc(C(=O)O)c2c(c1C)OC(=O)c1c(C)cc(O)c(C=O)c1O2` [PA, Psoromic acid], the half-maximal cytotoxic concentration (CC50) at 48 h in data set [1] was > 310 µM. The type of inhibition result on HSV-1 DNA polymerase was “competitive inhibitors”. Moreover, the IC50 was 0.7 ± 0.51 µM against HSV-1 DNA polymerase (with respect to dTTP incorporation ([3H]-dTTP)) and 1.9 ± 0.42 µM with HSV-1 strain KOS (Human alphaherpesvirus 1, Vero). In addition, the Ki at HSV-1 DNA polymerase (with respect to dTTP incorporation) is 0.3 ± 0.42 µM. The “SI (CC50/IC50)” value with HSV-1 strain KOS is given as >163.2.

Source of the values: publication PMC6720901, “Psoromic Acid, a Lichen-Derived Molecule, Inhibits the Replication of HSV-1 and HSV-2, and Inactivates HSV-1 DNA Polymerase: Shedding Light on Antiherpetic Properties” (Molecules, 2019).
